Experiments:
[1] = tested on: E. coli ATCC 25922 (SEN) and E. coli NCTC13846 (MDR); assay: Frequency-of-resistance (FoR) assay, relative MIC of mutants; assay type: cell-based, Escherichia coli
Method in brief: (§1)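 About 10^10 cells per strain were plated on MHB agar containing antibiotic at concentrations where the strain is susceptible, 48 h at 37 °C, in triplicate. Relative MIC = MICevolved/MICancestor.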

[2] = tested on: K. pneumoniae ATCC 10031 (SEN) and K. pneumoniae ATCC 700603 (MDR); assay: as above; assay type: cell-based, Klebsiella pneumoniae
Method in brief: as §1

[3] = tested on: A. baumannii ATCC 17978 (SEN) and A. baumannii ATCC BAA-1605 (MDR); assay: Adaptive laboratory evolution (ALE), relative MIC of evolved lines; assay type: cell-based, Acinetobacter baumannii
Method in brief: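 Ten parallel populations per antibiotic–ancestor pair were evolved in MHB at 37 °C, starting near 50% growth-inhibiting drug. Every 72 h they were passaged into 0.5–2.5× increasing concentrations, keeping the highest-drug well with OD600 > 0.2.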

[4] = E. coli NCTC 13846 (EC-MDR), evolved line 1
[5] = E. coli NCTC 13846 (EC-MDR), evolved line 2
[6] = E. coli NCTC 13846 (EC-MDR), evolved line 3
[7] = Klebsiella pneumoniae ATCC 10031 (KP-SEN), evolved line 1
[8] = Klebsiella pneumoniae ATCC 10031 (KP-SEN), evolved line 2
[9] = Klebsiella pneumoniae ATCC 10031 (KP-SEN), evolved line 3
[10] = Klebsiella pneumoniae ATCC 700603 (KP-MDR), evolved line 1
[11] = Klebsiella pneumoniae ATCC 700603 (KP-MDR), evolved line 2
[12] = Klebsiella pneumoniae ATCC 700603 (KP-MDR), evolved line 3
[13] = AB-SEN (A. baumannii ATCC 17978), evolved line 1 of the given antibiotic
[14] = AB-SEN (A. baumannii ATCC 17978), evolved line 2 of the given antibiotic
[15] = AB-SEN (A. baumannii ATCC 17978), evolved line 3 of the given antibiotic
[16] = AB-SEN (A. baumannii ATCC 17978), evolved line 4 of the given antibiotic
[17] = AB-SEN (A. baumannii ATCC 17978), evolved line 5 of the given antibiotic
[18] = AB-SEN (A. baumannii ATCC 17978), evolved line 6 of the given antibiotic
[19] = AB-SEN (A. baumannii ATCC 17978), evolved line 8 of the given antibiotic
[20] = AB-SEN (A. baumannii ATCC 17978), evolved line 9 of the given antibiotic

**Q.** Which results are given for `C[C@@H](O)[C@H]1C(=O)N2C(C(=O)O)=C(S[C@H]3CC[S@@+]([O-])C3)S[C@H]12` [Sulopenem]?
**A.** MIC of evolved line [1, 4]: 0.0625 µg/mL; Relative MIC ([1]; E. coli NCTC 13846 (EC-MDR), evolved line 1, evolved vs ancestor): 2; MIC of evolved line [1, 5]: 0.0312 µg/mL; Relative MIC ([1]; E. coli NCTC 13846 (EC-MDR), evolved line 2, evolved vs ancestor): 1; MIC of evolved line [1, 6]: 0.0312 µg/mL; Relative MIC ([1]; E. coli NCTC 13846 (EC-MDR), evolved line 3, evolved vs ancestor): 1; MIC of evolved line ([1]; Escherichia coli ATCC 25922 (EC-SEN), evolved line 1): 0.0156 µg/mL; MIC of evolved line ([1]; Escherichia coli ATCC 25922 (EC-SEN), evolved line 2): 0.0156 µg/mL; MIC of evolved line ([1]; Escherichia coli ATCC 25922 (EC-SEN), evolved line 3): 0.0156 µg/mL; Relative MIC ([1]; Escherichia coli ATCC 25922 (EC-SEN), evolved line 1 versus ancestor): 1; Relative MIC ([1]; Escherichia coli ATCC 25922 (EC-SEN), evolved line 2 versus ancestor): 1; Relative MIC ([1]; Escherichia coli ATCC 25922 (EC-SEN), evolved line 3 versus ancestor): 1; MIC of evolved line [2, 7]: 0.0312 µg/mL; MIC of evolved line [2, 8]: 0.0312 µg/mL; MIC of evolved line [2, 9]: 0.0312 µg/mL; Relative MIC ([2]; Klebsiella pneumoniae ATCC 10031 (KP-SEN), evolved line 1 versus ancestor): 1; Relative MIC ([2]; Klebsiella pneumoniae ATCC 10031 (KP-SEN), evolved line 2 versus ancestor): 1; Relative MIC ([2]; Klebsiella pneumoniae ATCC 10031 (KP-SEN), evolved line 3 versus ancestor): 1; MIC of evolved line [2, 10]: 4 µg/mL; MIC of evolved line [2, 11]: 4 µg/mL; MIC of evolved line [2, 12]: 8 µg/mL; Relative MIC ([2]; Klebsiella pneumoniae ATCC 700603 (KP-MDR), evolved line 1 versus ancestor): 8; Relative MIC ([2]; Klebsiella pneumoniae ATCC 700603 (KP-MDR), evolved line 2 versus ancestor): 8; Relative MIC ([2]; Klebsiella pneumoniae ATCC 700603 (KP-MDR), evolved line 3 versus ancestor): 16; MIC of evolved line [3, 13]: 8 µg/mL; Relative MIC ([3]; AB-SEN (A. baumannii ATCC 17978), evolved line 1 vs ancestor): 8; MIC of evolved line [3, 14]: 1 µg/mL; Relative MIC ([3]; AB-SEN (A. baumannii ATCC 17978), evolved line 2 vs ancestor): 1; MIC of evolved line [3, 15]: 16 µg/mL; Relative MIC ([3]; AB-SEN (A. baumannii ATCC 17978), evolved line 3 vs ancestor): 16; MIC of evolved line [3, 16]: 16 µg/mL; Relative MIC ([3]; AB-SEN (A. baumannii ATCC 17978), evolved line 4 vs ancestor): 16; MIC of evolved line [3, 17]: 64 µg/mL; Relative MIC ([3]; AB-SEN (A. baumannii ATCC 17978), evolved line 5 vs ancestor): 64; MIC of evolved line [3, 18]: 16 µg/mL; Relative MIC ([3]; AB-SEN (A. baumannii ATCC 17978), evolved line 6 vs ancestor): 16; MIC of evolved line ([3]; AB-SEN (A. baumannii ATCC 17978), evolved line 7 of the given antibiotic): 16 µg/mL; Relative MIC ([3]; AB-SEN (A. baumannii ATCC 17978), evolved line 7 vs ancestor): 16; MIC of evolved line [3, 19]: 8 µg/mL; Relative MIC ([3]; AB-SEN (A. baumannii ATCC 17978), evolved line 8 vs ancestor): 8; MIC of evolved line [3, 20]: 16 µg/mL; Relative MIC ([3]; AB-SEN (A. baumannii ATCC 17978), evolved line 9 vs ancestor): 16; Relative MIC (log10) ([3]; AB-SEN (Acinetobacter baumannii ATCC 17978), evolved line 1): 0.9031 log10; Relative MIC (log10) ([3]; AB-SEN (Acinetobacter baumannii ATCC 17978), evolved line 3): 1.204 log10; Relative MIC (log10) ([3]; AB-SEN (Acinetobacter baumannii ATCC 17978), evolved line 5): 1.806 log10; Relative MIC (log10) ([3]; AB-SEN (Acinetobacter baumannii ATCC 17978), evolved line 9): 1.204 log10; Relative MIC (log10) ([3]; AB-SEN, Acinetobacter baumannii ATCC 17978, evolved line 7): 1.204 log10; Relative MIC ([3]; Acinetobacter baumannii ATCC 17978 (AB-SEN), evolved line 1): 8; Relative MIC ([3]; Acinetobacter baumannii ATCC 17978 (AB-SEN), evolved line 2): 1; Relative MIC ([3]; Acinetobacter baumannii ATCC 17978 (AB-SEN), evolved line 3): 16; Relative MIC ([3]; Acinetobacter baumannii ATCC 17978 (AB-SEN), evolved line 4): 16; Relative MIC ([3]; Acinetobacter baumannii ATCC 17978 (AB-SEN), evolved line 5): 64; Relative MIC ([3]; Acinetobacter baumannii ATCC 17978 (AB-SEN), evolved line 6): 16; Relative MIC ([3]; Acinetobacter baumannii ATCC 17978 (AB-SEN), evolved line 7): 16; Relative MIC ([3]; Acinetobacter baumannii ATCC 17978 (AB-SEN), evolved line 8): 8; Relative MIC ([3]; Acinetobacter baumannii ATCC 17978 (AB-SEN), evolved line 9): 16

**Q.** For polymyxin-B, which MIC of evolved line ([1]; E. coli ATCC 25922 (EC-SEN), evolved line 1) is on record?
**A.** Its MIC of evolved line is 4 µg/mL.

**Q.** And the MIC of evolved line ([1]; E. coli ATCC 25922 (EC-SEN), evolved line 2)?
**A.** Its MIC of evolved line is 1 µg/mL.

**Q.** What about the MIC of evolved line ([1]; E. coli ATCC 25922 (EC-SEN), evolved line 3) of the same compound?
**A.** The MIC of evolved line was 8 µg/mL.

**Q.** And the MIC of evolved line [1, 4]?
**A.** The MIC of evolved line was 4 µg/mL.

**Q.** What about the MIC of evolved line [1, 5] of the same compound?
**A.** Its MIC of evolved line is 4 µg/mL.

**Q.** And the MIC of evolved line [1, 6]?
**A.** Its MIC of evolved line is 4 µg/mL.

**Q.** And the MIC of evolved line [2, 7]?
**A.** Its MIC of evolved line is 2 µg/mL.

**Q.** And the MIC of evolved line [2, 8]?
**A.** Its MIC of evolved line is 2 µg/mL.

**Q.** And the MIC of evolved line [2, 9]?
**A.** The MIC of evolved line was 2 µg/mL.

**Q.** What about the MIC of evolved line [2, 10] of the same compound?
**A.** The MIC of evolved line was 0.5 µg/mL.

**Q.** And the MIC of evolved line [2, 11]?
**A.** Its MIC of evolved line is 4 µg/mL.

**Q.** And the MIC of evolved line [2, 12]?
**A.** Its MIC of evolved line is 32 µg/mL.

**Q.** What about the MIC of evolved line ([3]; AB-MDR ATCC BAA 1605, evolved line 1) of the same compound?
**A.** Its MIC of evolved line is 512 µg/mL.

**Q.** And the MIC of evolved line ([3]; AB-MDR ATCC BAA 1605, evolved line 2)?
**A.** The MIC of evolved line was 512 µg/mL.

**Q.** What about the MIC of evolved line ([3]; AB-MDR ATCC BAA 1605, evolved line 3) of the same compound?
**A.** Its MIC of evolved line is 256 µg/mL.

**Q.** And the MIC of evolved line ([3]; AB-MDR ATCC BAA 1605, evolved line 4)?
**A.** Its MIC of evolved line is 1020 µg/mL.

**Q.** And the MIC of evolved line ([3]; AB-MDR ATCC BAA 1605, evolved line 5)?
**A.** The MIC of evolved line was 1020 µg/mL.

**Q.** And the MIC of evolved line ([3]; AB-MDR ATCC BAA 1605, evolved line 6)?
**A.** The MIC of evolved line was 1020 µg/mL.

**Q.** And the MIC of evolved line ([3]; AB-MDR ATCC BAA 1605, evolved line 7)?
**A.** The MIC of evolved line was 1020 µg/mL.

**Q.** And the MIC of evolved line ([3]; AB-MDR ATCC BAA 1605, evolved line 8)?
**A.** Its MIC of evolved line is 1020 µg/mL.

**Q.** What about the MIC of evolved line ([3]; AB-MDR ATCC BAA 1605, evolved line 9) of the same compound?
**A.** The MIC of evolved line was 1020 µg/mL.

**Q.** What about the MIC of evolved line ([3]; AB-MDR ATCC BAA 1605, evolved line 10) of the same compound?
**A.** Its MIC of evolved line is 1020 µg/mL.

**Q.** What about the MIC of evolved line [3, 13] of the same compound?
**A.** Its MIC of evolved line is 512 µg/mL.

**Q.** And the MIC of evolved line [3, 14]?
**A.** The MIC of evolved line was 512 µg/mL.

**Q.** And the MIC of evolved line [3, 15]?
**A.** The MIC of evolved line was 256 µg/mL.

**Q.** What about the MIC of evolved line [3, 16] of the same compound?
**A.** Its MIC of evolved line is 512 µg/mL.

**Q.** What about the MIC of evolved line [3, 17] of the same compound?
**A.** The MIC of evolved line was 512 µg/mL.

**Q.** What about the MIC of evolved line [3, 18] of the same compound?
**A.** The MIC of evolved line was 512 µg/mL.

**Q.** And the MIC of evolved line [3, 19]?
**A.** Its MIC of evolved line is 256 µg/mL.

**Q.** What about the MIC of evolved line [3, 20] of the same compound?
**A.** The MIC of evolved line was 256 µg/mL.

Reference: PMC11845477, “Exploring the principles behind antibiotics with limited resistance” (Nature Communications, 2025)
